Assay results reported in publication PMC11571207, “Stereorandomized Oncocins with Preserved Ribosome Binding and Antibacterial Activity” (Journal of Medicinal Chemistry, 2024).
Values after ≈ are worked out from the molar mass of the structure shown. Where two headings read alike, the source gives them in different places. Non-standard residues stand in square brackets, D forms with d. Residues, ends and D or L forms follow the SMILES beside them.

Tests used:
[1] = tested on: E. cloacae; assay: microbe, parasite or virus in culture; settings: for MIC E. cloacae, 12.5% MHB: 12.5% MHB pH 7.4; for MIC E. cloacae, 12.5% MHB / MIC E. cloacae, full MHB: 16–20 h at 37 °C; for MIC E. cloacae, full MHB: full MHB pH 7.4; for MIC E. cloacae: supplement CSV
Description: (§1) Minimum inhibitory concentration assay
(§2) Antimicrobial activity was assayed against P. aeruginosa PAO1, K. pneumoniae NCTC418, E. coli W3110, A. baumannii ATCC 19606, methicillin-resistant S. aureus COL (MRSA), and for selected peptides on P. aeruginosa PA14 and the polymyxin-B-resistant derivative PA14 2P4, as well as the clinical isolates ZEM-1A and ZEM9A, K. pneumoniae OXA-48, S. aureus Newman, Enterobacter cloacae and Burkholderia cenocepacia. The minimal inhibitory concentration (MIC) was determined by using broth microdilution method. A colo ny of bacteria was picked and grown in Luria-Bertani (LB) medium overnight at 37°C. For E. coli BW25113 sbmA::kan the medium was supplemented with 25 mg/L of kanamycin. The next day, the culture was then regrown in LB medium to log phase (OD600 = 0.6 to 0.8), which lasted approximately 4 h, and diluted to an OD600 of 0.022 in the desired medium. Stock solutions of 1 mg/mL of the samples were prepared in sterilized milliQ water and diluted to the beginning concentration of 64 μg/mL in 300 μL Mueller Hinton (MH)-medium. The diluted samples were added to first well of 96-well microtiter plate (TPP, untreated, Faust Laborbedarf, AG, Schaffhausen) and diluted serially by ½. Finally, 4 μL of the bacterial suspension was inoculated into the sample solutions (150 μL/well) with a final inoculation of about 5∙10^5 CFU/mL. The plates were then incubated at 37°C for 15-18h. For each assay, sterility (broth only) and growth control (broth with bacterial inoculum, without antibiotics) were checked with two columns in the plate. The next day, 15 μL of 3-(4,5-dimethylthiazol-2-yl)-2,5-diphenyltetrazolium bromide (MTT) was added to each well of the plate, such a way that MIC was defined as the lowest concentration of the peptide that inhibited visible growth of the tested

[2] = tested on: K. pneumoniae OXA-48; assay: microbe, parasite or virus in culture; settings: for MIC K. pneumoniae OXA-48, 12.5% MHB / MIC K. pneumoniae OXA-48, full MHB: carbapenem-resistant, 16–20 h at 37 °C; for MIC K. pneumoniae OXA-48, 12.5% MHB: 12.5% MHB pH 7.4; for MIC K. pneumoniae OXA-48, full MHB: full MHB pH 7.4; for MIC K. pneumoniae OXA-48: supplement CSV
Description: as §1, §2

[3] = tested on: P. aeruginosa PA14 2P4 (pmrB); assay: microbe, parasite or virus in culture; settings: for MIC P. aeruginosa PA14 2P4 (pmrB), 12.5% MHB / MIC P. aeruginosa PA14 2P4 (pmrB), full MHB: polymyxin B resistant strain, 16–20 h at 37 °C; for MIC P. aeruginosa PA14 2P4 (pmrB), 12.5% MHB: 12.5% MHB pH 7.4; for MIC P. aeruginosa PA14 2P4 (pmrB), full MHB: full MHB pH 7.4; for MIC P. aeruginosa PA14 2P4: supplement CSV
Description: as §1, §2

[4] = tested on: P. aeruginosa PA14; assay: microbe, parasite or virus in culture; settings: for MIC P. aeruginosa PA14, 12.5% MHB: 12.5% MHB pH 7.4; for MIC P. aeruginosa PA14, 12.5% MHB / MIC P. aeruginosa PA14, full MHB: 16–20 h at 37 °C, two different duplicate MIC determinations; for MIC P. aeruginosa PA14, full MHB: full MHB pH 7.4; for MIC P. aeruginosa PA14: supplement CSV
Description: as §1, §2

[5] = tested on: P. aeruginosa ZEM-1A; assay: microbe, parasite or virus in culture; settings: for MIC P. aeruginosa ZEM-1A, 12.5% MHB / MIC P. aeruginosa ZEM-1A, full MHB: clinical isolate, 16–20 h at 37 °C, cells marked c: single measurement (in duplicates); for MIC P. aeruginosa ZEM-1A, 12.5% MHB: 12.5% MHB pH 7.4; for MIC P. aeruginosa ZEM-1A, full MHB: full MHB pH 7.4; for MIC P. aeruginosa ZEM-1A: supplement CSV
Description: as §1, §2

[6] = tested on: P. aeruginosa ZEM9A; assay: microbe, parasite or virus in culture; settings: for MIC P. aeruginosa ZEM9A, 12.5% MHB / MIC P. aeruginosa ZEM9A, full MHB: clinical isolate, 16–20 h at 37 °C; for MIC P. aeruginosa ZEM9A, 12.5% MHB: 12.5% MHB pH 7.4; for MIC P. aeruginosa ZEM9A, full MHB: full MHB pH 7.4; for MIC P. aeruginosa ZEM9A: supplement CSV
Description: as §1, §2

[7] = tested on: P. aeruginosa PA14 4.13 (phoQ); settings: for MIC P. aeruginosa PA14 4.13 (phoQ), 12.5% MHB / MIC P. aeruginosa PA14 4.13 (phoQ), full MHB: polymyxin B resistant strain, 16–20 h at 37 °C; for MIC P. aeruginosa PA14 4.13 (phoQ), 12.5% MHB: 12.5% MHB pH 7.4; for MIC P. aeruginosa PA14 4.13 (phoQ), full MHB: full MHB pH 7.4; for MIC P. aeruginosa PA14 4.13: supplement CSV

Structure (SMILES): CC[C@@H](C)[C@@H](NC(=O)[C@@H](CCCNC(=N)N)NC(=O)[C@@H](CCCNC(=N)N)NC(=O)[C@H]1CCCN1C(=O)[C@H]1CCCN1C(=O)[C@@H](CCCNC(=N)N)NC(=O)[C@H]1CCCN1C(=O)[C@@H](CCCNC(=N)N)NC(=O)[C@H]1CCCN1C(=O)[C@@H](CC(C)C)NC(=O)[C@@H](Cc1ccc(O)cc1)NC(=O)[C@H]1CCCN1C(=O)[C@H]1CCCN1C(=O)[C@@H](CCCCN)NC(=O)[C@@H](CC(=O)O)NC(=O)[C@H](N)C(C)C)C(=O)N[C@H](Cc1ccc(O)cc1)C(=O)N[C@H](CC(N)=O)C(=O)N[C@H](CCCNC(=N)N)C(N)=O [D-Onc] (H-[dV][dD][dK][dP][dP][dY][dL][dP][dR][dP][dR][dP][dP][dR][dR][dI][dY][dN][dR]-NH2)
- MIC E. cloacae, 12.5% MHB [1]: 16 µg/mL (≈ 6.69 µM)
- MIC E. cloacae, full MHB [1]: > 64 µg/mL
- MIC E. cloacae ([1]; 12.5% MH pH 7.4): 16 µg/mL (≈ 6.69 µM)
- MIC E. cloacae ([1]; full MH pH 7.4): >64 µg/mL
- MIC K. pneumoniae OXA-48, 12.5% MHB [2]: >64/64 μg/mL
- MIC K. pneumoniae OXA-48, full MHB [2]: >64/64 μg/mL
- MIC K. pneumoniae OXA-48 ([2]; 12.5% MH pH 7.4): 64 µg/mL (≈ 26.8 µM)
- MIC K. pneumoniae OXA-48 ([2]; full MH pH 7.4): >64 µg/mL
- MIC P. aeruginosa PA14 2P4 (pmrB), 12.5% MHB [3]: 8 µg/mL (≈ 3.35 µM)
- MIC P. aeruginosa PA14 2P4 (pmrB), full MHB [3]: > 64 µg/mL
- MIC P. aeruginosa PA14 2P4 ([3]; 12.5% MH pH 7.4): 8 µg/mL (≈ 3.35 µM)
- MIC P. aeruginosa PA14 2P4 ([3]; full MH pH 7.4): >64 µg/mL
- MIC P. aeruginosa PA14, 12.5% MHB [4]: 32 µg/mL (≈ 13.4 µM)
- MIC P. aeruginosa PA14, full MHB [4]: > 64 µg/mL
- MIC P. aeruginosa PA14 ([4]; 12.5% MH pH 7.4): 32 µg/mL (≈ 13.4 µM)
- MIC P. aeruginosa PA14 ([4]; full MH pH 7.4): >64 µg/mL
- MIC P. aeruginosa ZEM-1A, 12.5% MHB [5]: >64/>64 ^c μg/mL
- MIC P. aeruginosa ZEM-1A, full MHB [5]: >64/>64 ^c μg/mL
- MIC P. aeruginosa ZEM-1A ([5]; 12.5% MH pH 7.4): >64 µg/mL
- MIC P. aeruginosa ZEM-1A ([5]; full MH pH 7.4): >64 µg/mL
- MIC P. aeruginosa ZEM9A, 12.5% MHB [6]: 32 µg/mL (≈ 13.4 µM)
- MIC P. aeruginosa ZEM9A, full MHB [6]: > 64 µg/mL
- MIC P. aeruginosa ZEM9A ([6]; 12.5% MH pH 7.4): 32 µg/mL (≈ 13.4 µM)
- MIC P. aeruginosa ZEM9A ([6]; full MH pH 7.4): >64 µg/mL
- MIC P. aeruginosa PA14 4.13 (phoQ), 12.5% MHB [7]: 16 µg/mL (≈ 6.69 µM)
- MIC P. aeruginosa PA14 4.13 (phoQ), full MHB [7]: > 64 µg/mL
- MIC P. aeruginosa PA14 4.13 ([7]; 12.5% MH pH 7.4): 16 µg/mL (≈ 6.69 µM)
- MIC P. aeruginosa PA14 4.13 ([7]; full MH pH 7.4): >64 µg/mL

Structure (SMILES): CC[C@H](C)[C@H](NC(=O)[C@H](CCCNC(=N)N)NC(=O)[C@H](CCCNC(=N)N)NC(=O)[C@@H]1CCCN1C(=O)[C@@H]1CCCN1C(=O)[C@H](CCCNC(=N)N)NC(=O)[C@@H]1CCCN1C(=O)[C@H](CCCNC(=N)N)NC(=O)[C@@H]1CCCN1C(=O)[C@@H](CC(C)C)NC(=O)[C@H](Cc1ccc(O)cc1)NC(=O)[C@@H]1CCCN1C(=O)[C@@H]1CCCN1C(=O)[C@H](CCCCN)NC(=O)[C@H](CC(=O)O)NC(=O)[C@@H](N)C(C)C)C(=O)N[C@@H](Cc1ccc(O)cc1)C(=O)N[C@@H](CC(N)=O)C(=O)N[C@@H](CCCNC(=N)N)C(N)=O [DL7-Onc] (H-VDKPPY[dL]PRPRPPRRIYNR-NH2)
- MIC E. cloacae, 12.5% MHB [1]: 32 µg/mL (≈ 13.4 µM)
- MIC E. cloacae, full MHB [1]: > 64 µg/mL
- MIC E. cloacae ([1]; 12.5% MH pH 7.4): 32 µg/mL (≈ 13.4 µM)
- MIC E. cloacae ([1]; full MH pH 7.4): >64 µg/mL
- MIC K. pneumoniae OXA-48, 12.5% MHB [2]: >64/>64 μg/mL
- MIC K. pneumoniae OXA-48, full MHB [2]: >64/>64 μg/mL
- MIC K. pneumoniae OXA-48 ([2]; 12.5% MH pH 7.4): >64 µg/mL
- MIC K. pneumoniae OXA-48 ([2]; full MH pH 7.4): >64 µg/mL
- MIC P. aeruginosa PA14 2P4 (pmrB), 12.5% MHB [3]: 32 µg/mL (≈ 13.4 µM)
- MIC P. aeruginosa PA14 2P4 (pmrB), full MHB [3]: > 64 µg/mL
- MIC P. aeruginosa PA14 2P4 ([3]; 12.5% MH pH 7.4): 32 µg/mL (≈ 13.4 µM)
- MIC P. aeruginosa PA14 2P4 ([3]; full MH pH 7.4): >64 µg/mL
- MIC P. aeruginosa PA14, 12.5% MHB [4]: >32/>32 μg/mL
- MIC P. aeruginosa PA14, full MHB [4]: >32/>32 μg/mL
- MIC P. aeruginosa PA14 ([4]; 12.5% MH pH 7.4): >32 µg/mL
- MIC P. aeruginosa PA14 ([4]; full MH pH 7.4): >32 µg/mL
- MIC P. aeruginosa ZEM-1A, 12.5% MHB [5]: >64/>64 ^c μg/mL
- MIC P. aeruginosa ZEM-1A, full MHB [5]: >64/>64 ^c μg/mL
- MIC P. aeruginosa ZEM-1A ([5]; 12.5% MH pH 7.4): >64 µg/mL
- MIC P. aeruginosa ZEM-1A ([5]; full MH pH 7.4): >64 µg/mL
- MIC P. aeruginosa ZEM9A, 12.5% MHB [6]: >64/>64 μg/mL
- MIC P. aeruginosa ZEM9A, full MHB [6]: >64/>64 μg/mL
- MIC P. aeruginosa ZEM9A ([6]; 12.5% MH pH 7.4): >64 µg/mL
- MIC P. aeruginosa ZEM9A ([6]; full MH pH 7.4): >64 µg/mL
- MIC P. aeruginosa PA14 4.13 (phoQ), 12.5% MHB [7]: >32/>32 μg/mL
- MIC P. aeruginosa PA14 4.13 (phoQ), full MHB [7]: >32/>32 μg/mL
- MIC P. aeruginosa PA14 4.13 ([7]; 12.5% MH pH 7.4): >32 µg/mL
- MIC P. aeruginosa PA14 4.13 ([7]; full MH pH 7.4): >32 µg/mL
